Test results from patent US10357574B2, “Optical sensor conjugates for detecting reactive oxygen and/or reactive nitrogen species in vivo” (The General Hospital Corporation, priority 2010, dated 2019).

System: infarcted mouse hearts
Experiment: Mouse model of myocardial infarction (permanent coronary ligation), fluorescence imaging of heart sections
Format: in vivo, mice (C57/B6)
Conditions: injected intravenously into the tail-vein 12-14 hours after MI, imaged 24 hours later
Method: To investigate the utility of the optical sensor conjugate in vivo, we determined the ability of the sensor to monitor ischemia and inflammation as a result of permanent coronary ligation in a mouse model of myocardial infarction. For all experiments, the agents (optical sensor conjugate or fluorogenic small molecule with linker) were injected intravenously into the tail-vein of the mice 12-14 hours after MI and imaged 24 hours later when neutrophil recruitment to the infarct is high.
Anesthesized mice were intubated and a thoracotomy was performed in the 4th left intercostal space to visualize the left ventricle where the left coronary artery was ligated. […]
Hearts were excised and rinsed in PBS and cut into myocardial rings of 1-mm thickness and either immediately stained with 2-3-5-triphenyl tetrazolium chloride (TTC) (Nahrendorf et al. Circulation, 113:1196-202 (2006)) to highlight the infarcted tissue or used for histological analysis. Fluorescence reflectance imaging of side-by-side myocardial rings of controls and injected hearts was performed in the GFP channel (lexc=450-480 nm with lem 500-530 nm) and Cy5 channel (lexc=620-650 nm with lem=680-710 nm) using an Olympus OV-100 system (Olympus, Center Valley, Pa.). For histology and fluorescence microscopy, the tissue was embedded in OCT medium (Sakura Finetek, Torrance, Calif.). […]

## CCN(CC)c1ccc2c(c1)Oc1cc(N(CC)CC)ccc1N2C(=O)CCCC(=O)O [small molecule probe, sodium 5-(3,7-bis(diethylamino)-10H-phenoxazin-10-yl)-5-oxopentanoate]
  localization of fluorescence in coronal heart sections (fluorescence reflectance imaging): washed out of the infarct and into the myocardium
